Test results published in ChEMBL document CHEMBL1157012, “Neural computational prediction of oral drug absorption based on CODES 2D descriptors” (Eur J Med Chem, 2010).

Assay: Human intestinal absorption in po dosed human
Conditions: in vivo

Compound | Fa [%]
CN(C)C(=O)OC1N=C(c2ccccc2)c2cc(Cl)ccc2N(C)C1=O (stereo not given) [CAMAZEPAM] | 100
O=C(O)c1cccnc1 [NIACIN] | 88
CCOC(=O)C(C)(C)Oc1ccc(Cl)cc1 [CLOFIBRATE] | 97
CN(CCCCCCN(C)C(=O)Oc1ccc[n+](C)c1)C(=O)Oc1ccc[n+](C)c1.[Br-].[Br-] [DISTIGMINE BROMIDE] | 8
CCC[C@@H]1C[C@@H](C(=O)N[C@@H]([C@H]2O[C@H](SC)[C@H](O)[C@@H](O)[C@H]2O)[C@@H](C)O)N(C)C1 [LINCOMYCIN] | 28
C[C@H]1C[C@@H]2[C@H]([C@@H](O)C[C@@]3(C)[C@H]2CC[C@]3(O)C(=O)CO)[C@@]2(C)C=CC(=O)C=C12 [METHYLPREDNISOLONE] | 82
CN1C2CCCC1CC(NC(=O)c1nn(C)c3ccccc13)C2 (stereo not given) [GRANISETRON] | 100
COc1cc2nc(N3CCN(C(=O)c4ccco4)CC3)nc(N)c2cc1OC [PRAZOSIN] | 86
CNC(=O)c1c(I)c(NC(C)=O)c(I)c(C(=O)[O-])c1I.[Na+] [IOTHALAMATE SODIUM] | 2
CC(CCc1ccccc1)NCC(O)c1ccc(O)c(C(N)=O)c1 (stereo not given) [LABETALOL] | 95
CC(C)NCC(O)COc1ccc(CCNC(=O)NC(C)C)cc1 (stereo not given) [PAFENOLOL] | 29
CN1C(C(=O)Nc2ccccn2)=C(O)c2sc(Cl)cc2S1(=O)=O [LORNOXICAM] | 100
C[C@]12CC[C@H]3[C@@H](CCC4=CC(=O)CC[C@@]43C)[C@@H]1CC[C@@H]2O [TESTOSTERONE] | 100
CC1=C(CC(=O)O)c2cc(F)ccc2/C1=C\c1ccc([S+](C)[O-])cc1 (stereo not given) | 90
N=C(N)N/N=C/c1c(Cl)cccc1Cl [GUANABENZ] | 80
CCN1CCCC1CNC(=O)c1cc(S(N)(=O)=O)ccc1OC (stereo not given) [SULPIRIDE] | 44
CNC(=C[N+](=O)[O-])NCCSCc1csc(CN(C)C)n1 [NIZATIDINE] | 90
Nc1ncnc2c1ncn2CCOCP(=O)(O)O [ADEFOVIR] | 16
N=C(N)NCC1COc2ccccc2O1 (stereo not given) [GUANOXAN] | 50
CCOC(=O)C1=C(C)NC(C)=C(C(=O)OC)C1c1cccc(Cl)c1Cl (stereo not given) [FELODIPINE] | 88
O=C1CN=C(c2ccccn2)c2cc(Br)ccc2N1 [BROMAZEPAM] | 84
CO/N=C(\C(=O)N[C@@H]1C(=O)N2C(C(=O)OC(C)OC(C)=O)=C(COC(N)=O)CS[C@H]12)c1ccco1 (stereo not given in full) [CEFUROXIME AXETIL] | 44
CCOc1ccccc1OCC1CNCCO1 (stereo not given) [VILOXAZINE] | 98
O=C(O)c1ccccc1O [SALICYLIC ACID] | 100

Compound | Fa [%]
CC(=O)Oc1ccccc1C(=O)O [ASPIRIN] | 82
C#C[C@]1(O)CC[C@H]2[C@@H]3CCC4=CC(=O)CC[C@@H]4[C@H]3CC[C@@]21CC [LEVONORGESTREL] | 100
ClC(Cl)Cl [CHLOROFORM] | 100
O=CN(O)CCCP(=O)(O)O [FOSMIDOMYCIN] | 30
Cc1ccc(/C(=C\CN2CCCC2)c2cccc(/C=C/C(=O)O)n2)cc1 [ACRIVASTINE] | 88
C[C@H]1[C@H](NC(=O)/C(=N\OC(C)(C)C(=O)O)c2csc(N)n2)C(=O)N1S(=O)(=O)O [AZTREONAM] | 1
C[C@@H]1O[C@@H](O[C@H]2C[C@@H](O)[C@]3(CO)[C@H]4[C@H](O)C[C@]5(C)[C@@H](C6=CC(=O)OC6)CC[C@]5(O)[C@@H]4CC[C@]3(O)C2)[C@H](O)[C@H](O)[C@H]1O [OUABAIN] | 1
CC(=O)Nc1ccc(O)cc1 [ACETAMINOPHEN] | 80
C=CCOc1ccccc1OCC(O)CNC(C)C (stereo not given) [OXPRENOLOL] | 95
CCN1CCCC1CNC(=O)c1cc(S(=O)(=O)CC)ccc1OC (stereo not given) [SULTOPRIDE] | 89
CC(C)NCC(O)COc1ccc(CCOCC2CC2)cc1 (stereo not given) [BETAXOLOL] | 90
CN(C)CCOc1ccc(/C(=C(/CCCl)c2ccccc2)c2ccccc2)cc1 [TOREMIFENE] | 100
COc1ccc(Cl)cc1C(=O)NCCc1ccc(S(=O)(=O)NC(=O)NC2CCCCC2)cc1 [GLYBURIDE] | 100
NC(=O)c1ncn([C@@H]2O[C@H](CO)[C@@H](O)[C@H]2O)n1 [RIBAVIRIN] | 33
CCc1nn(CCCN2CCN(c3cccc(Cl)c3)CC2)c(=O)n1CCOc1ccccc1 [NEFAZODONE] | 100
Cc1cnc(NC(=O)C2=C(O)c3ccccc3S(=O)(=O)N2C)s1 [MELOXICAM] | 90
C=C[C@H]1C[N@@]2CC[C@H]1C[C@@H]2[C@@H](O)c1ccnc2ccc(OC)cc12 [QUINIDINE] | 81
CNS(=O)(=O)Cc1ccc2[nH]cc(CCN(C)C)c2c1 | 57
COc1ccccc1N1CCN(CCCNc2cc(=O)n(C)c(=O)n2C)CC1 | 78
CC1(C)O[C@@H]2[C@@H](CO[C@@]3(COS(N)(=O)=O)OC(C)(C)O[C@@H]23)O1 [TOPIRAMATE] | 86
CN1C(C(=O)Nc2nccs2)=C(O)c2ccccc2S1(=O)=O [SUDOXICAM] | 100
Clc1cccc(Cl)c1N=C1NCCN1 [CLONIDINE] | 95
C[C@](N)(Cc1ccc(O)c(O)c1)C(=O)O [METHYLDOPA] | 41
CCCc1cc(=O)[nH]c(=S)[nH]1 [PROPYLTHIOURACIL] | 76

Compound | Fa [%]
CNCCCN1c2ccccc2CCc2ccccc21 [DESIPRAMINE] | 100
CC(C)(C)NCC(O)c1ccc(O)c(CO)n1 (stereo not given) [PIRBUTEROL] | 60
CN/C(=N/CCSCc1nc[nH]c1C)NC#N [CIMETIDINE] | 64
CCOC(=O)[C@H](CCc1ccccc1)N[C@@H](C)C(=O)N1CCC[C@H]1C(=O)O | 66
CC#Cc1cn([C@@H]2O[C@H](CO)[C@@H](O)[C@@H]2O)c(=O)[nH]c1=O [NETIVUDINE] | 28
N[C@H](Cc1ccccc1)C(=O)N1CCC[C@H]1C(=O)O | 100
CN(Cc1cnc2nc(N)nc(N)c2n1)c1ccc(C(=O)N[C@@H](CCC(=O)O)C(=O)O)cc1 [METHOTREXATE] | 70
CCC(=O)C(CC(C)N(C)C)(c1ccccc1)c1ccccc1 (stereo not given) [METHADONE] | 80
O=C(NCC1CCCCN1)c1cc(OCC(F)(F)F)ccc1OCC(F)(F)F (stereo not given) [FLECAINIDE] | 81
NS(=O)(=O)c1cc(-c2nnn[nH]2)c(NCc2cccs2)cc1Cl [AZOSEMIDE] | 10
COC(=O)C1=C(C)NC(C)=C(C(=O)OCC(C)C)C1c1ccccc1[N+](=O)[O-] (stereo not given) [NISOLDIPINE] | 89
COc1cc(N)c(Cl)cc1C(=O)NC1CCN(CCCOc2ccc(F)cc2)CC1OC (stereo not given) [CISAPRIDE] | 100
NCCCC[C@H](N[C@@H](CCc1ccccc1)C(=O)O)C(=O)N1CCC[C@H]1C(=O)O [LISINOPRIL ANHYDROUS] | 28
O=C(O)c1cc(/N=N/c2ccc(O)c(C(=O)O)c2)ccc1O [OLSALAZINE] | 24
Nc1nnc(-c2cccc(Cl)c2Cl)c(N)n1 [LAMOTRIGINE] | 98
COc1nc(C)nc(Cl)c1N=C1NCCN1 [MOXONIDINE] | 87
Cc1cn([C@H]2C=C[C@@H](CO)O2)c(=O)[nH]c1=O [STAVUDINE] | 100
CO/N=C(\C(=O)N[C@@H]1C(=O)N2C(C(=O)O)=CCS[C@H]12)c1csc(N)n1 [CEFTIZOXIME] | 72
OC[C@@H](O)[C@@H](O)[C@H](O)[C@H](O)CO [MANNITOL] | 16
O=C(c1ccccc1)c1ccc2n1CCC2C(=O)O (stereo not given) [KETOROLAC] | 90
O=C(N[C@H](CO)[C@H](O)c1ccc([N+](=O)[O-])cc1)C(Cl)Cl [CHLORAMPHENICOL] | 90
COc1cc(Cc2cnc(N)nc2N)cc(OC)c1OC [TRIMETHOPRIM] | 97
NS(=O)(=O)c1cc2c(cc1Cl)NCNS2(=O)=O [HYDROCHLOROTHIAZIDE] | 69
Cc1cc(NC(=O)C2=C(O)c3ccccc3S(=O)(=O)N2C)no1 [ISOXICAM] | 100

Compound | Fa [%]
CC1(C)S[C@@H]2[C@H](NC(=O)C(C(=O)Oc3ccccc3)c3ccccc3)C(=O)N2[C@H]1C(=O)O (stereo not given in full) [CARBENICILLIN PHENYL] | 99
Cc1cccc(C)c1NC(=O)NCCCNC(C)C | 71
O=S(=O)([O-])CCS.[Na+] [MESNA] | 77
Cn1c(=O)c2c(ncn2C)n(C)c1=O [CAFFEINE] | 100
NNC(=O)c1ccncc1 [ISONIAZID] | 80
Nc1ccn([C@@H]2CS[C@H](CO)O2)c(=O)n1 [LAMIVUDINE] | 85
CCCOC(C(=O)OC1CCN(C)CC1)(c1ccccc1)c1ccccc1 [PROPIVERINE] | 84
C[C@@H]1O[C@@H]1P(=O)(O)O [FOSFOMYCIN] | 31
CC[C@H](C)C(=O)O[C@H]1C[C@H](O)C=C2C=C[C@H](C)[C@H](CC[C@@H](O)C[C@@H](O)CC(=O)O)[C@H]21 [PRAVASTATIN] | 34
CC(C(=O)O)c1ccc(C2CCCC(=NO)C2)cc1 (stereo not given) [XIMOPROFEN] | 98
COc1cc2nc(N3CCN(C(=O)C4CCCO4)CC3)nc(N)c2cc1OC (stereo not given) [TERAZOSIN] | 90
COc1cc([C@@H]2c3cc4c(cc3[C@@H](O[C@@H]3O[C@@H]5CO[C@@H](C)O[C@H]5[C@H](O)[C@H]3O)[C@H]3COC(=O)[C@H]23)OCO4)cc(OC)c1O [ETOPOSIDE] | 50
N[C@@H]1CON=C1O [CYCLOSERINE] | 73
O=c1[nH]c(=O)n([C@@H]2O[C@H](CO)[C@@H](O)[C@@H]2O)cc1/C=C/Br [SORIVUDINE] | 82
CCc1[nH]c(=O)[nH]c1C(=O)c1ccncc1 [PIROXIMONE] | 80
C[C@H](CS)C(=O)N1CCC[C@H]1C(=O)O [CAPTOPRIL] | 84
O=C1O[C@H]([C@@H](O)CO)C(O)=C1O [ASCORBIC ACID] | 35
Nc1cc(N2CCCCC2)nc(N)[n+]1[O-] [MINOXIDIL] | 98
C[C@]12C=CC(=O)C=C1CC[C@@H]1[C@@H]2[C@@H](O)C[C@@]2(C)[C@H]1CC[C@]2(O)C(=O)CO [PREDNISOLONE] | 99
N[C@@H]1[C@H]2CN(c3nc4c(cc3F)c(=O)c(C(=O)O)cn4-c3ccc(F)cc3F)C[C@@H]12 [TROVAFLOXACIN] | 88
CC(=O)S[C@@H]1CC2=CC(=O)CC[C@]2(C)[C@H]2CC[C@@]3(C)[C@@H](CC[C@@]34CCC(=O)O4)[C@H]12 [SPIRONOLACTONE] | 73
CC(C)NCC(O)c1cc(O)cc(O)c1 (stereo not given) [METAPROTERENOL] | 44
NC(=O)N1C(=O)/C(=C(\O)c2cccs2)c2cc(Cl)ccc21 [TENIDAP] | 89
